From PMC5344293, “A phase 1 dose-escalation and expansion study of binimetinib (MEK162), a potent and selective oral MEK1/2 inhibitor” (British Journal of Cancer, 2017)

Assay: Phase 1 safety: adverse events
Format: in vivo, human
Procedure: All patients underwent a complete medical history and physical examination, assessment of ECOG performance status and vital signs, and laboratory analysis of haematology, coagulation, clinical chemistry, and urine. Three serial resting and supine 12-lead electrocardiograms were conducted over 5–10 min and cardiac ejection fraction was assessed by echocardiogram or MUGA. In addition, a complete ophthalmologic examination (including visual acuity; fundoscopy and tonometry; optical coherence tomography; and slit-lamp, lens, vitreous, and fluorescence dye examinations) was performed on each patient. These assessments were repeated throughout study participation and/or as clinically indicated. Adverse events were reviewed on an ongoing basis.
Adverse events and serious AEs (SAEs) were coded by preferred term (PT) and system organ class using the Medical Dictionary for Regulatory Activities version 12.0. The severity of AEs was assessed by investigators using the National Cancer Institute Common Terminology Criteria for Adverse Events version 3.0. Two AEs of special interest were captured under the composite terms of ‘combined rash' and ‘combined ocular events.' The ‘combined rash' term included the PTs of dermatitis acneiform, acne, skin exfoliation, and any term containing ‘rash'. The ‘combined ocular events' term included the PTs of retinal deposits, retinopathy, papilloedema, chorioretinopathy, macular oedema, retinal detachment, and retinal disorder.
All patients who received ⩾1 dose of binimetinib were included in the safety analysis. Patients in the safety analysis who had ⩾1 measurable lesion at baseline and at least 1 post-baseline disease assessment were evaluable for efficacy. Kaplan–Meier estimates of progression-free survival (PFS) and overall survival (OS) were performed for patients in the expansion phase ([Kaplan and Meier, 1958]) using SAS Version 9.2 (SAS Institute Inc., Cary, NC, USA).

In the case of Cn1cnc2c(F)c(Nc3ccc(Br)cc3F)c(C(=O)NOCCO)cc21 [binimetinib], the Abdominal pain (30 mg BID (n=4), Gr 1/2) was 1 (25) n (%), the Anaemia (30 mg BID (n=4), Gr 1/2) was 1 (25) n (%) and the Anorexia (30 mg BID (n=4), Gr 1/2) was 1 (25) n (%). The Combined ocular events (30 mg BID (n=4), Gr 1/2) was 0 (0) n (%), the Combined rash (30 mg BID (n=4), Gr 1/2) was 4 (100) n (%) and the Constipation (30 mg BID (n=4), Gr 1/2) was 2 (50) n (%). For the same compound, the Diarrhoea (30 mg BID (n=4), Gr 1/2) was 4 (100) n (%), the Dizziness (30 mg BID (n=4), Gr 1/2) was 0 (0) n (%) and the Dyspnoea (30 mg BID (n=4), Gr 1/2) was 2 (50) n (%). For the same compound, the Fatigue (30 mg BID (n=4), Gr 1/2) was 2 (50) n (%), the Nausea (30 mg BID (n=4), Gr 1/2) was 3 (75) n (%) and the Peripheral oedema (30 mg BID (n=4), Gr 1/2) was 0 (0) n (%). The Pyrexia (30 mg BID (n=4), Gr 1/2) was 2 (50) n (%), the Vomiting (30 mg BID (n=4), Gr 1/2) was 3 (75) n (%) and the Abdominal pain (30 mg BID (n=4), Gr 3/4) was 0 (0) n (%). For the same compound, the Anaemia (30 mg BID (n=4), Gr 3/4) was 0 (0) n (%), the Anorexia (30 mg BID (n=4), Gr 3/4) was 0 (0) n (%) and the Combined ocular events (30 mg BID (n=4), Gr 3/4) was 0 (0) n (%). For the same compound, the Combined rash (30 mg BID (n=4), Gr 3/4) was 0 (0) n (%), the Constipation (30 mg BID (n=4), Gr 3/4) was 0 (0) n (%) and the Diarrhoea (30 mg BID (n=4), Gr 3/4) was 0 (0) n (%). For the same compound, the Dizziness (30 mg BID (n=4), Gr 3/4) was 0 (0) n (%), the Dyspnoea (30 mg BID (n=4), Gr 3/4) was 0 (0) n (%) and the Fatigue (30 mg BID (n=4), Gr 3/4) was 0 (0) n (%). The Nausea (30 mg BID (n=4), Gr 3/4) was 0 (0) n (%), the Peripheral oedema (30 mg BID (n=4), Gr 3/4) was 0 (0) n (%) and the Pyrexia (30 mg BID (n=4), Gr 3/4) was 0 (0) n (%). The Vomiting (30 mg BID (n=4), Gr 3/4) was 0 (0) n (%), the “Incidence of ocular events” value (30 mg BID dose group) was 0% and the “Patients reporting SAEs” value (30 mg BID dose group) was 50%. The Abdominal pain (45 mg BID (n=44), Gr 1/2) was 7 (16) n (%), the Anaemia (45 mg BID (n=44), Gr 1/2) was 5 (11) n (%) and the Anorexia (45 mg BID (n=44), Gr 1/2) was 8 (18) n (%). The Combined ocular events (45 mg BID (n=44), Gr 1/2) was 5 (11) n (%), the Combined rash (45 mg BID (n=44), Gr 1/2) was 33 (75) n (%) and the Constipation (45 mg BID (n=44), Gr 1/2) was 6 (14) n (%). The Diarrhoea (45 mg BID (n=44), Gr 1/2) was 17 (39) n (%), the Dizziness (45 mg BID (n=44), Gr 1/2) was 5 (11) n (%) and the Dyspnoea (45 mg BID (n=44), Gr 1/2) was 5 (11) n (%). For the same compound, the Fatigue (45 mg BID (n=44), Gr 1/2) was 18 (41) n (%), the Nausea (45 mg BID (n=44), Gr 1/2) was 27 (61) n (%) and the Peripheral oedema (45 mg BID (n=44), Gr 1/2) was 20 (45) n (%). For the same compound, the Pyrexia (45 mg BID (n=44), Gr 1/2) was 7 (16) n (%), the Vomiting (45 mg BID (n=44), Gr 1/2) was 23 (52) n (%) and the Abdominal pain (45 mg BID (n=44), Gr 3/4) was 1 (2) n (%). For the same compound, the Anaemia (45 mg BID (n=44), Gr 3/4) was 3 (7) n (%), the Anorexia (45 mg BID (n=44), Gr 3/4) was 0 (0) n (%) and the Combined ocular events (45 mg BID (n=44), Gr 3/4) was 0 (0) n (%). The Combined rash (45 mg BID (n=44), Gr 3/4) was 1 (2) n (%), the Constipation (45 mg BID (n=44), Gr 3/4) was 0 (0) n (%) and the Diarrhoea (45 mg BID (n=44), Gr 3/4) was 0 (0) n (%). For the same compound, the Dizziness (45 mg BID (n=44), Gr 3/4) was 0 (0) n (%), the Dyspnoea (45 mg BID (n=44), Gr 3/4) was 2 (5) n (%) and the Fatigue (45 mg BID (n=44), Gr 3/4) was 2 (5) n (%). The Nausea (45 mg BID (n=44), Gr 3/4) was 0 (0) n (%), the Peripheral oedema (45 mg BID (n=44), Gr 3/4) was 0 (0) n (%) and the Pyrexia (45 mg BID (n=44), Gr 3/4) was 0 (0) n (%). The Vomiting (45 mg BID (n=44), Gr 3/4) was 0 (0) n (%), the “AEs resulting in treatment discontinuation, patients” value (45 mg BID dose group) was 16% and the “AEs that resulted in dose reduction, patients” value (45 mg BID dose group) was 16%. For the same compound, the “Incidence of combined rash” value (45 mg BID dose group) was 77%, the Incidence of diarrhoea (45 mg BID dose group) was 39% and the Incidence of nausea (45 mg BID dose group) was 61%. For the same compound, the “Incidence of ocular events” value (45 mg BID dose group) was 11%, the “Incidence of peripheral oedema” value (45 mg BID dose group) was 45% and the Incidence of vomiting (45 mg BID dose group) was 52%. For the same compound, the “Median time to onset of combined rash” value (45 mg BID dose group) was 8 days, the “Patients reporting SAEs” value (45 mg BID dose group) was 20% and the Abdominal pain (60 mg BID (n=41), Gr 1/2) was 7 (17) n (%). The Anaemia (60 mg BID (n=41), Gr 1/2) was 5 (12) n (%), the Anorexia (60 mg BID (n=41), Gr 1/2) was 8 (20) n (%) and the Combined ocular events (60 mg BID (n=41), Gr 1/2) was 11 (27) n (%). For the same compound, the Combined rash (60 mg BID (n=41), Gr 1/2) was 35 (85) n (%), the Constipation (60 mg BID (n=41), Gr 1/2) was 8 (20) n (%) and the Diarrhoea (60 mg BID (n=41), Gr 1/2) was 25 (61) n (%). For the same compound, the Dizziness (60 mg BID (n=41), Gr 1/2) was 9 (22) n (%), the Dyspnoea (60 mg BID (n=41), Gr 1/2) was 6 (15) n (%) and the Fatigue (60 mg BID (n=41), Gr 1/2) was 16 (39) n (%). For the same compound, the Nausea (60 mg BID (n=41), Gr 1/2) was 21 (51) n (%), the Peripheral oedema (60 mg BID (n=41), Gr 1/2) was 21 (51) n (%) and the Pyrexia (60 mg BID (n=41), Gr 1/2) was 7 (17) n (%). For the same compound, the Vomiting (60 mg BID (n=41), Gr 1/2) was 20 (49) n (%), the Abdominal pain (60 mg BID (n=41), Gr 3/4) was 3 (7) n (%) and the Anaemia (60 mg BID (n=41), Gr 3/4) was 10 (24) n (%). For the same compound, the Anorexia (60 mg BID (n=41), Gr 3/4) was 0 (0) n (%), the Combined ocular events (60 mg BID (n=41), Gr 3/4) was 0 (0) n (%) and the Combined rash (60 mg BID (n=41), Gr 3/4) was 1 (2) n (%). For the same compound, the Constipation (60 mg BID (n=41), Gr 3/4) was 2 (5) n (%), the Diarrhoea (60 mg BID (n=41), Gr 3/4) was 0 (0) n (%) and the Dizziness (60 mg BID (n=41), Gr 3/4) was 0 (0) n (%). For the same compound, the Dyspnoea (60 mg BID (n=41), Gr 3/4) was 1 (2) n (%), the Fatigue (60 mg BID (n=41), Gr 3/4) was 1 (2) n (%) and the Nausea (60 mg BID (n=41), Gr 3/4) was 0 (0) n (%). The Peripheral oedema (60 mg BID (n=41), Gr 3/4) was 0 (0) n (%), the Pyrexia (60 mg BID (n=41), Gr 3/4) was 1 (2) n (%) and the Vomiting (60 mg BID (n=41), Gr 3/4) was 0 (0) n (%). The “AEs resulting in treatment discontinuation, patients” value (60 mg BID dose group) was 15%, the “AEs that resulted in dose reduction, patients” value (60 mg BID dose group) was 49% and the “Incidence of combined rash” value (60 mg BID dose group) was 88%. The Incidence of diarrhoea (60 mg BID dose group) was 61%, the Incidence of nausea (60 mg BID dose group) was 51% and the “Incidence of ocular events” value (60 mg BID dose group) was 27%. The “Incidence of peripheral oedema” value (60 mg BID dose group) was 51%, the Incidence of vomiting (60 mg BID dose group) was 49% and the “Median time to onset of combined rash” value (60 mg BID dose group) was 10 days. For the same compound, the “Patients reporting SAEs” value (60 mg BID dose group) was 41% and the Abdominal pain (80 mg BID (n=4), Gr 1/2) was 1 (25) n (%).
